According to patent EP0580409A2, “Cosmetic composition containing DOPA derivatives” (UNILEVER PLC, priority 1992, dated 1994):
Counter-ions that a name gives are not always drawn.

Experiments:
[1] = system: isolated living human hair follicles; assay: observation of inhibition or damage of cultured hair follicles; format: cell-based; settings: follicles cultured with test substance at 0.1mM or 1mM
Protocol: (§1) In accordance with the preferred method of culture, isolated hair follicles were maintained in 500µl of Williams E medium, containing the test substance (substituted DOPA) at a concentration of 1mM, at 37°C in an atmosphere of 5% CO₂ + 95% air in individual wells of a 24 multiwell dish (Corning), which permitted detailed observations of the colour and measurements to be made of individual hair follicles.
Groups of eight freshly isolated hair follicles were maintained in a Williams E medium under the conditions stated above. For a control group of follicles the medium contained no test substance. […]
(§2) The follicles were photographed at the start of the incubation period and again after incubation for two or four days. The growth and morphology of the follicles was monitored during the culture period.
Melanin formation by these follicles was assessed. […] The supernatant was removed, 200ul samples added to a 96 well plate and the melanin content then determined spectrophotometrically at 540nm. […] The protein content of each sample was also determined by the Folin & Lowry method, with the absorbance being read at 540nm. […] Results were expressed as ug melanin/mg soluble protein.

cultured follicles = assay: melanin formation by cultured hair follicles, spectrophotometric at 540nm; format: cell-based, human; settings: 12 cultured follicles per assay; control 1.11
Protocol: Melanin formation by these follicles was assessed. The procedure was based on that of Gardon and Gilchrest, 1989. For each assay 12 cultured follicles were placed in 500ul of 1M NaOH and incubated overnight at 4°C. The follicles were then homogenised and centrifuged at 14,000 rpm for 2 min. The supernatant was removed, 200ul samples added to a 96 well plate and the melanin content then determined spectrophotometrically at 540nm. A standard curve was also prepared from synthetic melanin dissolved in 1M NaOH. The protein content of each sample was also determined by the Folin & Lowry method, with the absorbance being read at 540nm. […] Results were expressed as ug melanin/mg soluble protein.

[2] = system: isolated living human hair follicles; assay: in vitro test of darkening of hair on regrowth with isolated hair follicles in culture; format: cell-based
Excerpt: The isolation of individual hair follicles and their culture will now be described.
The method of testing includes the important step of isolating hair follicles having an undamaged hair bulb from skin, preferably from human skin, by microdissection, but preferably without the enzymic pretreatment advocated by other workers in this field.
The critical step of separating the hair follicle with intact undamaged hair bulb from the subcutaneous fatty tissue in which it is situated accordingly involves severing the hair shaft of the follicle at a point below the epidermis or skin surface, so as to leave the hair bulb intact and undamaged while still bearing a portion of the hair shaft.
as §1
Hair shaft length measurements and colour changes, i.e. darkening, were made on these follicles, using a Nikon Diaphot inverted binocular photo microscope with eye piece measuring graticules, over seven days in culture.
Groups of eight freshly isolated hair follicles were maintained in a Williams E medium under the conditions stated above. For a control group of follicles the medium contained no test substance. For other groups of follicles the medium contained the test substance at 0.1mM concentration of 1mM concentration, In all cases the growth medium additionally contained L-glutamine (2mM), Penicillin (50 IU/ml), streptomycin (50 ug/ml), insulin (10 ug/ml) and hydrocortisone (10 ng/ml).
as §2

[3] = 0.1mM test substance in Williams E medium, after 48 hrs
[4] = 1mM test substance in Williams E medium, 96 hrs

Row | SMILES | inhibit or damage the follicles [1] | µg Melanin/mg soluble protein (cultured follicles) | DARKENING OBSERVED [2, 3] | DARKENING OBSERVED [2, 4]
1 | CC(N)(Cc1ccc(O)c(O)c1)C(=O)O (centres unmarked) [2-methyl-3-(3,4-dihydroxyphenyl)alanine, 2-methyl-3-(3,4-dihydroxyphenylalanine)] | did not appear to inhibit or damage the follicles | 8.36 µg Melanin/mg soluble protein | YES (after 48 hrs) | –
2 | CC(=O)Oc1ccc(C[C@H](N)C(=O)O)cc1OC(C)=O [3,4-diacetyl-L-DOPA hydrochloride] | – | – | – | YES (96 hrs)
3 | NC(C(=O)O)C(O)c1ccc(O)c(O)c1 (centres unmarked) [Dihydroxyphenylserine, 3,4-dihydroxyphenylserine] | did not appear to inhibit or damage the follicles | 6.31 µg Melanin/mg soluble protein | YES (after 48 hrs) | –
4 | COC(=O)[C@@H](N)Cc1ccc(OC(C)=O)c(OC(C)=O)c1 [methyl-3,4-diacetyl-L-DOPA hydrochloride] | – | – | – | YES (96 hrs)
